Assays:
[1] = target: T1, membrane-associated human IR-A (Homo sapiens, UniProt P06213); assay: Insulin receptor affinity on membrane associated receptors (SPA), IR-A; type: binding; conditions: relative to human insulin
T1 construct: expressed in transfected cells; host or cells: BHK cells, pZem219B vector, plasma membrane preparation
Experimental: (§1) Membrane-associated human IR and IGF-1R are purified from BHK cells stably transfected with the pZem219B vector containing either the human IR-A, IR-B or IGF-IR insert. BHK cells are harvested and homogenized in ice-cold buffer (25 mM HEPES pH 7.4, 25 mM CaCl2 and 1 mM MgCl2, 250 mg/L bacitracin, 0.1 mM Pefablock). The homogenates are layered on a 41% (w/v) sucrose cushion and centrifuged for 75 minutes at 95000 g at 4° C. The plasma membranes are collected, diluted 1:5 with buffer (as above) and centrifuged again for 45 minutes at 40000 g at 4° C. The pellets are resuspended in a minimal volume of buffer and drawn through a needle (size 23) three times before storage at −80° C. until usage. The relative binding affinity for either of the membrane-associated human IR-A, IR-B or IGF-1R is determined by competition binding in a SPA setup. IR assays are performed in duplicate in 96-well OptiPlates (Perkin-Elmer Life Sciences). Membrane protein is incubated with gentle agitation for 150 minutes at 25° C. with 50 pM [^125IA14Y]-human insulin in a total volume of […] assay buffer (50 mM HEPES, 150 mM NaCl, 5 mM MgSO4, 0.01% Triton X-100, 0.1% (w/v) HSA (Sigma A1887), Complete EDTA-free protease inhibitors), 50 μg of wheat germ agglutinate (WGA)-coated PVT microspheres (GE Healthcare) and increasing concentrations of ligand. Assays are terminated by centrifugation of the plate at 2000 rpm for 2 minutes and bound radioactivity quantified by counting on a TopCount NXT (Perkin-Elmer Life Sciences).
(§2) IGF-1R assays are conducted essentially as for the IR binding assays except that membrane-associated IGF-1R and 50 pM [^125I-Tyr31]-human IGF-1 were employed.

[2] = target: T2, membrane-associated human IR-B (Homo sapiens, UniProt P06213); assay: Insulin receptor affinity on membrane associated receptors (SPA), IR-B; type: binding; conditions: relative to human insulin
T2 construct: expressed in transfected cells; host or cells: BHK cells, pZem219B vector, plasma membrane preparation
T2 sequence (P06213 28-758 limits assumed): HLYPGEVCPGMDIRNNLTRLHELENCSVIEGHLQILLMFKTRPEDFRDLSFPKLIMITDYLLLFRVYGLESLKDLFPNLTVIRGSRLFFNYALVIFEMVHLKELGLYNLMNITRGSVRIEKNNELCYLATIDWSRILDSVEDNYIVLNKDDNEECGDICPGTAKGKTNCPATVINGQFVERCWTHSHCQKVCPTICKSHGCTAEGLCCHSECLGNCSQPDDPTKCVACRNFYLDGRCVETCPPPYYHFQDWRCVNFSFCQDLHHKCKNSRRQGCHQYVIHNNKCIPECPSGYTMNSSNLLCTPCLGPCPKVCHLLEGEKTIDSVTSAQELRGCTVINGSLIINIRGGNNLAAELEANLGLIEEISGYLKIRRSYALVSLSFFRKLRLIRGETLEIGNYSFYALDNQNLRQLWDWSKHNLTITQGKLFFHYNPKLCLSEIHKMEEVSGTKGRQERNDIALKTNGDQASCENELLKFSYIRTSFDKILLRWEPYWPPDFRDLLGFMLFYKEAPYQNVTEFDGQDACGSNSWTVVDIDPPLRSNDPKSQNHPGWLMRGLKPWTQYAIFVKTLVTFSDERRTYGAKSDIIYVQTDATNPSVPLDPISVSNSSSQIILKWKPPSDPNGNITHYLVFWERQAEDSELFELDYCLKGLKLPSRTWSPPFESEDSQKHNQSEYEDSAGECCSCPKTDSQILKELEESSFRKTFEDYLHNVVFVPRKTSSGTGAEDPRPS
T2 sequence (P06213 763-1382 partner limits assumed): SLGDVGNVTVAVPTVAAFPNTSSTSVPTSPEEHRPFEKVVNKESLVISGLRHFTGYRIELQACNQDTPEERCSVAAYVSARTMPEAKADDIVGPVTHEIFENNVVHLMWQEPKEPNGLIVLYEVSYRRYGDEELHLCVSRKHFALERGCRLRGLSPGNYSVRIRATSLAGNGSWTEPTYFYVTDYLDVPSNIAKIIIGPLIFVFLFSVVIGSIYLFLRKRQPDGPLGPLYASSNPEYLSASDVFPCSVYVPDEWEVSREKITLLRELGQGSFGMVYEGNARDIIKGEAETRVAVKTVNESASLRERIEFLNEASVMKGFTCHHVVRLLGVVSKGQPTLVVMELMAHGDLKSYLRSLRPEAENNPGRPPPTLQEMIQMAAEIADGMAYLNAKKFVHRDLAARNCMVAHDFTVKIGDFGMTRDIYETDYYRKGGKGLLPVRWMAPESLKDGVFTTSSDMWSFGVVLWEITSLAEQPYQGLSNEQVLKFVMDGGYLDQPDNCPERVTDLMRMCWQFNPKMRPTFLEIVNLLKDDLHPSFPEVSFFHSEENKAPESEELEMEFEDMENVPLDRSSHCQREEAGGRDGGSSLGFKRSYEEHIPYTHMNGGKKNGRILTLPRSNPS
Experimental: as §1, §2

[3] = In vivo PK after s.c. dosing, streptozotocin treated rats; parameters: species or system Sprague-Dawley rat; conditions: s.c. 30 nmol/kg, mean value
Experimental: (§3) Insulin-Fc conjugates were tested in vivo by subcutaneous (s.c.) administration to normal and streptozotocin (STZ) treated male Sprague-Dawley (SD) rats.
(§4) The rats were dosed s.c. in the neck region with a dose of 30 nmol/kg of the insulin-Fc conjugates. Blood samples for blood glucose and plasma insulin analysis were collected from the tongue vein up to 10 days post dosing. The insulin-Fc concentrations were measured by immuno-assay (LLOQ=1000 pM) and the resulting half-life values after s.c. dosing are shown in Table 4. The PK profiles for normal rats are shown in FIG. 3 and for streptozotocin treated rats in FIG. 6. Blood glucose (BG) was measured using Biosen S Line (EKF) and the BG and baseline corrected BG profiles for normal rats are shown in FIGS. 1 and 2 and for streptozotocin treated rats in FIGS. 4 and 5 respectively.

[4] = system: normal Sprague-Dawley rats; assay: In vivo PD, blood glucose lowering in normal rats; parameters: species or system Sprague-Dawley rat; conditions: s.c. 30 nmol/kg, baseline corrected BG up to 10 days, difference from vehicle, mean
Experimental: as §3, §4

[5] = target: T3, hFcRn ectodomain (Homo sapiens, UniProt P55899); assay: SPR analysis of the binding of hFcRn ECD; conditions: pH 6.0, 25° C., steady-state fitting; read-out: Kn (μM), binding of hFcRn ECD
T3 construct: the hFcRn ectodomain diluted at 4000 nM with 2-fold serial dilutions was injected
T3 sequence (P55899 24-297 limits assumed): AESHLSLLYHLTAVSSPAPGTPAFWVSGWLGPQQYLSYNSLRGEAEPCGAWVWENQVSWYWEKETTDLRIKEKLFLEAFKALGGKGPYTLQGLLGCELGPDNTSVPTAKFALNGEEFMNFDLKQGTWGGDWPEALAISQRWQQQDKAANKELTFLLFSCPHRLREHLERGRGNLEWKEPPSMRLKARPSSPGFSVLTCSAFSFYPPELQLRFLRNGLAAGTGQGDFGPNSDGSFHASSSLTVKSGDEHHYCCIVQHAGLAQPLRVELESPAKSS
T3 sequence (P61769 21-119 partner): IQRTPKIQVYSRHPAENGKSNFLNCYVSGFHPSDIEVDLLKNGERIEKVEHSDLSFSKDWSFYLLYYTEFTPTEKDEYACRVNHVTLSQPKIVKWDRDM
Experimental: First, the three Insulin-Fc samples diluted at 10 ug/ml and the wild-type hIgG4 Fc (produced in HEK293 cells, i.e. glycosylated) diluted at 30 ug/ml in 10 mM sodium acetate (pH 4.5) (GE Healthcare, catalogue #BR100350) were immobilized on a CMD50L sensor chip (XanTec Bioanalytics GmbH) at spot 2 or 4 at 70-90 RU in each used flow cell via amine coupling with 1×HBS-EP+ (pH 7.4) (GE Healthcare, catalogue #BR-1006-69) used as the running buffer. The wild-type hIgG4 Fc was used as the control sample. In each used flow cell, spots 2, 3 and 4 were activated by 100 mM N-hydroxysuccinimide (NHS) and 400 mM N-ethyl-N′-dimethylaminopropyl carbodiimide hydrochloride (EDC) mixed at equal volume before the immobilization and blocked by 1 M ethanolamine hydrochloride-NaOH (pH 8.5) after the immobilization. NHS, EDC and ethanolamine were obtained from the Amine Coupling Kit, type 2 (GE Healthcare, catalogue #BR100633).
Next, the hFcRn ectodomain diluted at 4000 nM with 2-fold serial dilutions was injected through each used flow cell for 60 sec to allow for binding of the hFcRn ectodomain to the Insulin-Fc conjugates and wild-type hIgG4 Fc samples immobilized on the sensor chip, followed by dissociation for 180 sec. 1×PBS-EP+ (pH 6.0) was used as the dilution buffer for the hFcRn ectodomain and the running buffer in each binding cycle at the flow rate of 30 ul/min. After each binding cycle, the sensor chip was regenerated with a 60 sec injection of 1×PBS-EP+ (pH 7.4) at the flow rate of 30 ul/min. The 1×PBS-EP+ (pH 7.4) buffer was prepared by diluting 0.5 M EDTA (pH 8.0) (Invitrogen, catalogue #15575038) at 3 mM into 1×PBS-P+ (GE Healthcare, catalogue #28995084). The 1×PBS-EP+ (pH 6.0) buffer was prepared by adjusting the pH of the 1×PBS-EP+ buffer from 7.4 to 6.0 using ˜10 M HCl. The affinities (equilibrium dissociation constants, KD) were determined via steady-state fitting of the binding curves using the 1:1 binding model in Biacore 4000 Evaluation Software 1.0 (GE Healthcare).

T1 sequence (P06213 28-1370 isoform P06213-2 limits assumed): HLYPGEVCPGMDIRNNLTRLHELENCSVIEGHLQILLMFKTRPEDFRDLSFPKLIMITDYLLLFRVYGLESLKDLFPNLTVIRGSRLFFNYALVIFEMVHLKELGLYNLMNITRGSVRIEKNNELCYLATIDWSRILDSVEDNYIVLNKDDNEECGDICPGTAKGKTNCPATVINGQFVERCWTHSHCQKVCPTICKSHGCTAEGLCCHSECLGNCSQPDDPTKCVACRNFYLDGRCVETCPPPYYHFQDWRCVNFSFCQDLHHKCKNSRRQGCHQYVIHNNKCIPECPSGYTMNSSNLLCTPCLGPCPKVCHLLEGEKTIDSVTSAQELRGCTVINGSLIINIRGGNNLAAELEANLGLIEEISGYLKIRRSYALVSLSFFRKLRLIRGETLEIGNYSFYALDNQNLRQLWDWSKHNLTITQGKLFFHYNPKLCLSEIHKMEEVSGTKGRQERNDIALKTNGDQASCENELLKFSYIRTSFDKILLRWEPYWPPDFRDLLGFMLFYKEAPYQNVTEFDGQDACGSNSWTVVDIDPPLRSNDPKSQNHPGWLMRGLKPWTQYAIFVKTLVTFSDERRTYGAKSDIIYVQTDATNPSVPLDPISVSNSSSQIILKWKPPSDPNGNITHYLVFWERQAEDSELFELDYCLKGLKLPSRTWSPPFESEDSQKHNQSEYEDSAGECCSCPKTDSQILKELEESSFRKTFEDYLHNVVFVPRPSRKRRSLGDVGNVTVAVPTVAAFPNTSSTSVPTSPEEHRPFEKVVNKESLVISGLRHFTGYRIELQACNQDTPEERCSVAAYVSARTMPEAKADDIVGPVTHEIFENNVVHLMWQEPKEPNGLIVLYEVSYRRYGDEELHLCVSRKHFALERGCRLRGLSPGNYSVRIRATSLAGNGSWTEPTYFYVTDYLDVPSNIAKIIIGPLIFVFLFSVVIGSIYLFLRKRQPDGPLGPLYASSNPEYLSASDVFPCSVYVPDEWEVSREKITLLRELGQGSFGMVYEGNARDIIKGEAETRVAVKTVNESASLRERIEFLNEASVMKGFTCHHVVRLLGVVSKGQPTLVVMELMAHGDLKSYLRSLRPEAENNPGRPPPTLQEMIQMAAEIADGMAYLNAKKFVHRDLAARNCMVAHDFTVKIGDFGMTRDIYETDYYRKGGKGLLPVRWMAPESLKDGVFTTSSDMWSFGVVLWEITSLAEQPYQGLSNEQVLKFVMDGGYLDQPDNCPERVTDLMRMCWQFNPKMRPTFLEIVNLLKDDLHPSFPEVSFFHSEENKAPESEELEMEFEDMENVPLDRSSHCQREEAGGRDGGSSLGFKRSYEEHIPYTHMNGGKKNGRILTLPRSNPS
T1 sequence (P06213 763-1382 partner limits assumed): as the sequence (P06213 763-1382 partner limits assumed) above

Substance	hIR-A mem Rel. aff. (%) [1] [%]	hIR-B mem Rel. aff. (%) [2] [%]	PK STZ rat [T1/2, s.c. (h)] [3] [h]	AOCBG normal rat [4] [mM·h]	Kd [5] [µM]
(A14E, A21G, A22(GQEP)12, A70K^, A71P, B25H, B29R, desB30 human insulin)/(226A, 227G, 228P, 234A, 235K, 297E, 315Q, 384Q, des447 hIgG4-Fc(226-447))3,5-bis[(2-acetyl)amino]benzoyl Conjugate [Example 5.1]	2.97	3.05	24	251	1.5
(A14E, A21G, A22(GQEP)11, A66G, A67Q, A68E, A69K^, A70P, B16H, B25H, B29R, desB30 human insulin)/(226A, 227G, 228P, 234A, 235K, 297E, 315Q, 384Q, des447 hIgG4-Fc(226-447))3,5-bis[(2-acetyl)amino]benzoyl Conjugate [Example 5.2]	1.27	1.26	39	364	1.6

Reference: US20210393745A1, “OLIGOMER EXTENDED INSULIN-FC CONJUGATES AND THEIR MEDICAL USE” (Novo Nordisk A/S, priority 2018, published 2021)
